Entries after “also recorded” stand apart in the source; their conditions may differ.
Assays:
[1] = system: IL-1β production, LPS-challenged mice; experiment: In vivo acute assay for efficacy as anti-inflammatory agent: LPS-induced IL-1β production in mice; parameters: species or system mouse; conditions: for inhibition of IL-1β production after oral administration, dosed at time of LPS challenge: LPS-challenged mice, vehicles ethanol/PEG/water, β-cyclodextrin, labrosol/water or cremophor/water, result in words; for Inhibition (%) of IL-1β production in LPS-challenged mice: oral, dosed at time of LPS challenge
Procedure, shortened: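 CD1 mice (n=6) were challenged with LPS 20 mg/kg IP and given compound IP in olive oil:DMSO:ethanol (90:5:5) 1 h after LPS, or at the time of challenge for some analogs. Blood was taken 7 h after LPS and serum IL-1β was measured by ELISA. Oral gavage at 50 mg/kg was also tested.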

[2] = In vivo bioavailability determination (oral, rat); conditions: for blood levels of drug when dosed orally: oral 10-100 mg/kg; for blood levels of drug when dosed orally / drug availability when dosed orally: result in words; for Drug Availability / Cmax / drug availability when dosed orally: oral; for Cmax: aldehyde (drug) concentration
Method: In Vivo Bioavailability Determination
The drugs (10-100 mg/kg) were dosed orally to rats (10 mL/kg) in ethanol/PEG/water, β-cyclodextrin, labrosol/water or cremophor/water. Blood samples were drawn from the carotid artery at 0.25, 0.50, 1, 1.5, 2, 3, 4, 6, and 8 hours after dosing, centrifuged to plasma and stored at −70° C. until analysis. Aldehyde concentrations were determined using an enzymatic assay. Pharmacokinetic analysis of data was performed by non-linear regression using RStrip (MicroMath Software, UT).

[3] = system: male DBA/1J mice, type II collagen-induced arthritis; experiment: Type II collagen-induced arthritis; type: in vivo, mouse; conditions: oral gavage twice a day 10, 25 and 50 mg/kg (214e: 50 mg/kg once a day), Arthritis Severity Score, result in words
Method: Type II Collagen-Induced Arthritis
Type II collagen-induced arthritis was established in male DBA/1J mice at described Wooley and Geiger (Wooley, P. H., Methods in Enzymology, 162, pp. 361-373 (1988) and Geiger, T., Clinical and Experimental Rheumatology, 11, pp. 515-522 (1993)). Chick sternum Type II collagen ([…] in 10 mM acetic acid) was emulsified with an equal volume of Freund's complete adjuvant (FCA) by repeated passages (400) between two 10 ml glass syringes with a gauge 16 double-hub needle. Mice were immunized by intradermal injection (50 μl; […], CII per mouse) of collagen emulsion 21 days later at the contra-lateral side of the tail base. Drugs were administered twice a day (10, 25 and 50 mg/kg) by oral gavage approximately 7 h apart. Vehicles used included ethanol/PEG/water, β-cyclodextrin, labrosol/water or cremophor/water. Drug treatments were initiated within 2 h of the CII booster immunization. Inflammation was scored on a 1 to 4 scale of increasing severity on the two front paws and the scores are added to give the final score.

[4] = system: U937 cells; experiment: Fas-induced apoptosis in U937 cells; conditions: Homo sapiens, U-937, read-out: Inhibition of apoptosis
Method: Fas-Induced Apoptosis in U937 cells. Compounds were evaluated for their ability to block anti-Fas-induced apopotosis. […] We used this cell line for apoptosis studies. U937 cells were seeded in culture at 1×10^5 cells/ml and grown to ˜5×10^6 cells/ml. For apoptosis experiments, 2×10^6 cells were plated in 24-well tissue culture plates in 1 ml RPMI-1640-10% FBS and stimulated with 100 ng/ml anti-Fas antigen antibody (Medical and Biological Laboratories, Ltd.). After a 24 hr incubation at 37° C., the percentage of apoptotic cells was determined by FACS analysis using ApoTag reagents.

[5] = molecular target: T1, ICE (Homo sapiens, UniProt P29466); experiment: Enzyme assay with fluorescent substrate (Acetyl-Tyr-Val-Ala-Asp-AMC); Ki and second order rate constants kinact; type: biochemical
T1 sequence (P29466 120-297 limits assumed): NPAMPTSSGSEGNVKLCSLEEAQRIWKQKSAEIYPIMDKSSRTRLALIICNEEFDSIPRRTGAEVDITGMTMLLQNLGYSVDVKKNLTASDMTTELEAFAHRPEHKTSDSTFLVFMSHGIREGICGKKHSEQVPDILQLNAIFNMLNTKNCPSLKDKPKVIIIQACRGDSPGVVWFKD
T1 sequence (P29466 317-404 limits assumed): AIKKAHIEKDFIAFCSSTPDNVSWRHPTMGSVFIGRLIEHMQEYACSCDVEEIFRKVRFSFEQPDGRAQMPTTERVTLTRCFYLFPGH
Method: 2. Enzyme Assay with Fluorescent Substrate
This assay is run essentially according to Thornberry et al. (Nature 356: 768-774 (1992)), using substrate 17 referenced in that article. The substrate is: Acetyl-Tyr-Val-Ala-Asp-amino-4-methylcoumarin (AMC). The following components are mixed:
The assay is run in a 96 well microtiter plate. Buffer and ICE are added to the wells. The components are left to incubate at 37° C. for 15 minutes in a temperature-controlled wellplate. After the 15 minute incubation, the reaction is started by adding substrate directly to the wells and the reaction is monitored @37° C. for 30 minutes by following the release of the AMC fluorophore using an excitation wavelength for 380 nm and an emission wavelength of 460 nm. A linear fit of the data for each well is performed and a rate is determined in fluorescence units per second.
For determination of enzyme inhibition constants (Ki) or the mode of inhibition (competitive, uncompetitive or noncompetitive), the rate data determined in the enzyme assays at varying inhibitor concentrations are computer-fit to standard enzyme kinetic equations (see I. H. Segel, Enzyme Kinetics, Wiley-Interscience, 1975).
The determination of second order rate constants for irreversible inhibitors was performed by fitting the fluorescence vs time data to the progress equations of Morrison. Morrison, J. F., Mol. Cell. Biophys., 2, pp. 347-368 (1985). Thornberry et al. have published a description of these methods for measurement of rate constants of irreversible inhibitors of ICE. Thornberry, N. A., et al. Biochemistry, 33, pp. 3923-3940 (1994). For compounds where no prior complex formation can be observed kinetically, the second order rate constants (kinact) are derived directly from the slope of the linear plots of kobs vs. [I]. For compounds where prior complex formation to the enzyme can be detected, the hyperbolic plots of kobs vs. [I] are fit to the equation for saturation kinetics to first generate Ki and k′. The second order rate constant kinact is then given by k′/Ki.
(§1) The selectivity of a panel of reversible inhibitors for ICE homologs is depicted in Table 1. ICE enzyme assays were performed according to Wilson et al (supra 1994) using a YVAD-AMC substrate (Thornberry et al, supra 1992). Assay of TX activity was performed using the ICE substrate under identical conditions to ICE. Assay of CPP32 was performed using a DEVD-AMC substrate (Nicholson et al., supra 1995). In general, there is low selectivity between ICE and TX for a wide range of scaffolds. None of the synthetic ICE compounds tested are effective inhibitors of CPP32.
(§2) Second-order rate constants for inactivation of ICE and ICE homologs with selected irreversible inhibitors are presented below (Table 2). The irreversible compounds studied are broad spectrum inhibitors of ICE and its homologs. Some selectivity, however, is observed with the irreversible compounds comparing inhibition of ICE and CPP32.

[6] = molecular target: T2, TX (Homo sapiens, UniProt P49662); experiment: Inhibition of ICE homologs: TX; type: biochemical; conditions: second-order rate constant for inactivation, irreversible inhibitors (Table 2)
T2 construct: made in house; host or cells: Spodoptera frugiperda (Sf9) insect cells, recombinant baculovirus (pVL1393/TX)
T2 sequence (P49662 81-270 limits assumed): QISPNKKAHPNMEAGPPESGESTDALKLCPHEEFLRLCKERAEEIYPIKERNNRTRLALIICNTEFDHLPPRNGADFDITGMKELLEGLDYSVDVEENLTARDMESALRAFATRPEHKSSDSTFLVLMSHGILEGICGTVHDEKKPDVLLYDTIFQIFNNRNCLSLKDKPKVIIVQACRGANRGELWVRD
T2 sequence (P49662 290-377 limits assumed): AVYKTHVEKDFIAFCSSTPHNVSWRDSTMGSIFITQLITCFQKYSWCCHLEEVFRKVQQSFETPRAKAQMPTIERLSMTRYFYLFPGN
Description: Expression of TX in insect cells using a baculovirus expression system. We have subcloned Tx cDNA (Faucheu et al., supra 1995) into a modified pVL1393 transfer vector, co-transfected the resultant plasmid (pVL1393/TX) into insect cells with viral DNA and identified the recombinant baculovirus. After the generation of high titer recombinant virus stock, the medium was examined for TX activity using the visible ICE assay. […] ICE was used as a standard in the assay.
as §1, §2

[7] = system: IL-1β levels in the peritoneal fluid, carrageenan-challenged mice; experiment: Mouse carrageenan peritoneal inflammation; type: in vivo; conditions: for Inhibition (%) of IL-1β production in carrageenan-challenged mice: oral
Method: Mouse Carrageenan Peritoneal Inflammation
Inflammation was induced in mice with an intraperitoneal (IP) injection of 10 mg carrageenan in 0.5 ml of saline (Griswold et al., Inflammation, 13, pp. 727-739 (1989)). Drugs are administered by oral gavage in ethanol/PEG/water, β-cyclodextrin, labrosol/water or cremophor/water vehicle. The mice are sacrificed at 4 hours post carrageenan administration, then injected IP with 2 ml of saline containing 5 U/ml heparin. After gentle massage of the peritoneum, a small incision is made, the contents collected and volume recorded. Samples are kept on ice until centrifuged (130×g, 8 mins at 4° C.) to remove cellular material, and the resultant supernatant stored at −20° C. IL-1β levels in the peritoneal fluid are determined by ELISA.

SMILES | inhibition of IL-1β production after oral administration, dosed at time of LPS challenge [1] | Inhibition (%) of IL-1β production in LPS-challenged mice ([1]; 10 mg/kg dose) [%] | Inhibition (%) of IL-1β production in LPS-challenged mice ([1]; 25 mg/kg dose) [%] | Inhibition (%) of IL-1β production in LPS-challenged mice ([1]; 50 mg/kg dose) [%] | blood levels of drug when dosed orally [2] | drug availability when dosed orally [2] | inhibition of inflammation / progression of type II collagen-induced arthritis [3] | Drug Availability ([2]; dose 25 mg/kg) [%] | Cmax ([2]; dose 25 mg/kg) [ng/mL] | Inhibition (%) of IL-1β production in carrageenan-challenged mice ([7]; dose 1 mg/kg) [%] | Inhibition (%) of IL-1β production in carrageenan-challenged mice ([7]; dose 10 mg/kg) [%] | Inhibition (%) of IL-1β production in carrageenan-challenged mice ([7]; dose 25 mg/kg) [%] | Inhibition (%) of IL-1β production in carrageenan-challenged mice ([7]; dose 50 mg/kg) [%] | Inhibition (%) of IL-1β production in carrageenan-challenged mice ([7]; dose 100 mg/kg) [%] | also measured
O=C(CN1C(=O)[C@@H](NC(=O)c2nccc3ccccc23)CN(C(=O)CO)c2ccccc21)N[C@H]1CC(=O)OC1OCc1ccccc1 (mixture of isomers) [Compound 696a, (3S)-2-Oxo-3-(isoquinolin-1-oyl)amino-5-hydroxyacetyl-N-[(2RS,3S)-benzyloxy-5-oxo-tetrahydrofuran-3-yl]-2,3,4,5-tetrahydro-1H-1,5-benzodiazepine-1-acetamide] | inhibit IL-1β production | 0 | 45 | 52 | significant blood levels of drug | good drug availability | inhibit inflammation; also recorded: blocks the progression | – | – | – | – | – | – | – | Drug Availability ([2]; dose 50 mg/kg): 10%; Cmax ([2]; dose 50 mg/kg): 1200 ng/mL
O=C(O)C[C@H](NC(=O)CN1C(=O)[C@@H](NC(=O)CCc2ccccc2)CN(C(=O)CCc2ccccc2)c2ccccc21)C(=O)COC(=O)c1c(Cl)cccc1Cl [Compound 108a, 2,6-Dichlorobenzoic acid 4-carboxy-2-oxo-3(S)-{2-[2-oxo-5-(3-phenylpropionyl)-3(S)-(3-phenylpropionylamino)-2,3,4,5-tetrahydrobenzo[b][1,4]diazepin-1-yl]acetylamino}butyl ester] | – | – | – | – | – | – | – | – | – | – | – | – | – | – | inhibition at 20 µM [4]: > 75%; Fluorescent Assay kinact ([5]; Table 6): 1 × 10^5 m^−1 s^−1; kinact (ICE) ([5]; second-order rate constant for inactivation, irreversible inhibitors (Table 2)): 100,000 M^−1 s^−1; kinact (TX) [6]: 25,000 M^−1 s^−1
O=C1C[C@H](NC(=O)[C@@H]2CCCN3C(=O)CC[C@H](NC(=O)c4nccc5ccccc45)C(=O)N23)[C@H](OC2CCCC2)O1 [Compound 412d, [1S,9S(2R,3S)]N-(2-Cyclopentoxy-5-oxotetrahydrofuran-3-yl)-6,10-dioxo-9-(isoquinolin-1-oylamino)-1,2,3,4,7,8,9,10-octahydro-6-H-pyridazino[1,2-a][1,2]diazepine-1-carboxamide] | inhibit IL-1β production | – | – | – | significant blood levels of drug | good drug availability | inhibit inflammation; also recorded: blocks the progression | 35 | 2600 | 0 | 32 | 31 | 36 | 53 | –
CCO[C@@H]1OC(=O)C[C@@H]1NC(=O)[C@@H]1CCCN2C(=O)CC[C@H](NC(=O)c3nccc4ccccc34)C(=O)N12 [Compound 412f, [1S,9S(2R,3S)]N-(2-Ethoxy-5-oxotetrahydrofuran-3-yl)-6,10-dioxo-9-(isoquinolin-1-oylamino)-1,2,3,4,7,8,9,10-octahydro-6-H-pyridazino[1,2-a][1,2]diazepine-1-carboxamide] | inhibit IL-1β production | 17 | 25 | 32 | significant blood levels of drug | good drug availability | inhibit inflammation; also recorded: blocks the progression | 32 | 2400 | 30 | 54 | 49 | 73 | 75 | inhibition of IL-1β production in carrageenan-challenged mice ([7]; oral administration, 214e at 50 mg/kg, result in words): inhibits IL-1β production
